Experimental data reported in patent US9499550B2 (BRISTOL-MYERS SQUIBB COMPANY, priority 2012, dated 2016).
Where two headings read alike, the source gives them in different places.

How the values were obtained:
[1] = system: HCV genotype 1a (H77 strain) replicon in HUH-7 cells; experiment: HCV replicon luciferase reporter assay, genotype 1a; format: cell-based; settings: 3 days incubation
Method in brief: (§1)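 Replicon inhibition for both genotypes was measured as Renilla luciferase signal (EnduRen, 7.5 μM final, 2 h) after 3-day, 37° C exposure of replicon-bearing HUH-7 cells in 4% FCS DMEM, 0.5% DMSO. The 1b construct carries S1179I; the 1a H77 construct carries P1496L and S2204I. Twenty-point, 3-fold dilutions were fitted four-parametrically for EC50, and CC50 was taken from multiplexed Cell Titer-Blue.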

[2] = system: HCV genotype 1b (Con1) replicon in HUH-7 cells; experiment: HCV replicon luciferase reporter assay, genotype 1b; format: cell-based; settings: 3 days incubation
Method in brief: as §1

[3] = Hepatitis C virus, Huh-7, 72 h, HCV genotype 1a replicon luciferase, read-out: LE_1a (EC50, range)
[4] = Hepatitis C virus, Huh-7, 72 h, HCV genotype 1b replicon luciferase, read-out: LE_1b (EC50, range)

Row | Structure (SMILES) | EC50 [1, 3] | EC50 [2, 4] | also measured
1 | CCCOc1cnc(O[C@@H]2C[C@H]3C(=O)N[C@]4(C(=O)NS(=O)(=O)C5CC5)C[C@H]4/C=C\CC[C@@H](C)C[C@@H](C)[C@H](NC(=O)O[C@@H]4C[C@@H]5C[C@@H]5C4)C(=O)N3C2)c2ccccc12 [Compound 5093, (1R,3r,5S)-bicyclo[3.1.0]hexan-3-yl((2R,6S,7R,9R,13aS,14aR,16aS,Z)-14a-((cyclopropylsulfonyl)carbamoyl)-7,9-dimethyl-5,16-dioxo-2-((4-propoxyisoquinolin-1-yl)oxy)-1,2,3,5,6,7,8,9,10,11,13a,14,14a,15,16,16a-hexadecahydrocyclopropa[e]pyrrolo[1,2-a][1,4]diazacyclopentadecin-6-yl)carbamate] | 4.82 to 103 nM | < 5.46 nM | –
2 | COc1ccc2c(O[C@@H]3C[C@H]4C(=O)N[C@]5(C(=O)NS(=O)(=O)C6(F)CC6)C[C@H]5/C=C\CC[C@@H](C)C[C@@H](C)[C@H](NC(=O)C(C)(C)C)C(=O)N4C3)nccc2c1 [Compound 4015] | < 5.46 nM | < 5.46 nM | –
3 | CC[C@@H]1C[C@@H](C)CC/C=C\[C@@H]2C[C@@]2(C(=O)NS(=O)(=O)C2CC2)NC(=O)[C@@H]2C[C@@H](Oc3nc(OC)cc4ccccc34)CN2C(=O)[C@H]1NC(=O)OC(C)(C)C(F)(F)F [Compound 6002, 1,1,1-trifluoro-2-methylpropan-2-yl((2R,6S,7R,9S,13aS,14aR,16aS,Z)-14a-((cyclopropylsulfonyl)carbamoyl)-7-ethyl-2-((3-methoxyisoquinolin-1-yl)oxy)-9-methyl-5,16-dioxo-1,2,3,5,6,7,8,9,10,11,13a,14,14a,15,16,16a-hexadecahydrocyclopropa[e]pyrrolo[1,2-a][1,4]diazacyclopentadecin-6-yl)carbamate] | 4.82 to 103 nM | < 5.46 nM | –
4 | COc1ccc2c(O[C@@H]3C[C@H]4C(=O)N[C@]5(C(=O)NS(=O)(=O)C6CC6)C[C@H]5/C=C\CC[C@@H](C)C[C@@H](C)[C@H](NC(=O)OC(C)(C)C)C(=O)N4C3)nc(-c3ccc(N4CCOCC4)cc3)cc2c1 [Compound 5193, tert-butyl ((2R,6S,7R,9R,13aS,14aR,16aS,Z)-14a-((cyclopropylsulfonyl)carbamoyl)-2-((6-methoxy-3-(4-morpholinophenyl)isoquinolin-1-yl)oxy)-7,9-dimethyl-5,16-dioxo-1,2,3,5,6,7,8,9,10,11,13a,14,14a,15,16,16a-hexadecahydrocyclopropa[e]pyrrolo[1,2-a][1,4]diazacyclopentadecin-6-yl)carbamate] | < 5.46 nM | < 5.46 nM | –
5 | CC(C)Oc1cnc(O[C@@H]2C[C@H]3C(=O)N[C@]4(C(=O)NS(=O)(=O)C5CC5)C[C@H]4/C=C\CC[C@@H](C)C[C@@H](C)[C@H](NC(=O)OC(C)(C)C(F)(F)F)C(=O)N3C2)c2cccc(Cl)c12 [Compound 4017] | < 5.46 nM | < 5.46 nM | –
6 | COc1ccc2c(O[C@@H]3C[C@H]4C(=O)N[C@]5(C(=O)NS(=O)(=O)C6(C)CC6)C[C@H]5/C=C\CC[C@H](C)C[C@@H](C)[C@H](NC(=O)O[C@H](C)C(F)(F)F)C(=O)N4C3)nc(-c3ccc(OC(C)C)cc3)c(OC)c2c1 [Compound 5349, (R)-1,1,1-trifluoropropan-2-yl ((2R,6S,7R,9S,13aS,14aR,16aS,Z)-2-((3-(4-isopropoxyphenyl)-4,6-dimethoxyisoquinolin-1-yl)oxy)-7,9-dimethyl-14a-(((1-methylcyclopropyl)sulfonyl)carbamoyl)-5,16-dioxo-1,2,3,5,6,7,8,9,10,11,13a,14,14a,15,16,16a-hexadecahydrocyclopropa[e]pyrrolo[1,2-a][1,4]diazacyclopentadecin-6-yl)carbamate] | 4.82 to 103 nM | < 5.46 nM | –
7 | CC[C@@H]1C[C@H](C)CC/C=C\[C@@H]2C[C@@]2(C(=O)NS(=O)(=O)C2CC2)NC(=O)[C@@H]2C[C@@H](Oc3nccc4c5c(ccc34)OCCO5)CN2C(=O)[C@H]1NC(=O)OC(C)(C)C(F)(F)F [Compound 5338, 1,1,1-trifluoro-2-methylpropan-2-yl((2R,6S,7R,9R,13aS,14aR,16aS,Z)-14a-((cyclopropylsulfonyl)carbamoyl)-2-((2,3-dihydro-[1,4]dioxino[2,3-f]isoquinolin-7-yl)oxy)-7-ethyl-9-methyl-5,16-dioxo-1,2,3,5,6,7,8,9,10,11,13a,14,14a,15,16,16a-hexadecahydrocyclopropa[e]pyrrolo[1,2-a][1,4]diazacyclopentadecin-6-yl)carbamate] | < 5.46 nM | < 5.46 nM | –
8 | COc1cc2ccnc(O[C@@H]3C[C@H]4C(=O)N[C@]5(C(=O)NS(=O)(=O)C6(CF)CC6)C[C@H]5/C=C\CC[C@@H](C)C[C@@H](C)[C@H](NC(=O)OC(C)(C)C(F)(F)F)C(=O)N4C3)c2cc1OC [Compound 5383, 1,1,1-trifluoro-2-methylpropan-2-yl((2R,6S,7R,9R,13aS,14aR,16aS,Z)-2-((6,7-dimethoxyisoquinolin-1-yl)oxy)-14a-(((1-(fluoromethyl)cyclopropyl)sulfonyl)carbamoyl)-7,9-dimethyl-5,16-dioxo-1,2,3,5,6,7,8,9,10,11,13a,14,14a,15,16,16a-hexadecahydrocyclopropa[e]pyrrolo[1,2-a][1,4]diazacyclopentadecin-6-yl)carbamate] | – | – | EC50 ([1]; HCV genotype 1a replicon luciferase, read-out: LE_1a (EC50, range)): 5.01 to 35 nM; EC50 ([2]; HCV genotype 1b replicon luciferase, read-out: LE_1b (EC50, range)): 1.01 to 5 nM
9 | COc1cnc(O[C@@H]2C[C@H]3C(=O)N[C@]4(C(=O)NS(=O)(=O)C5(C)CC5)C[C@H]4/C=C\CC[C@H](C)C[C@@H](C)[C@H](NC(=O)OC(C)(C)C)C(=O)N3C2)c2ccc(N(C)C)cc12 [Compound 3135, tert-butyl ((2R,6S,7R,9S,13aS,14aR,16aS,Z)-2-((6-(dimethylamino)-4-methoxyisoquinolin-1-yl)oxy)-7,9-dimethyl-14a-(((1-methylcyclopropyl)sulfonyl)carbamoyl)-5,16-dioxo-1,2,3,5,6,7,8,9,10,11,13a,14,14a,15,16,16a-hexadecahydrocyclopropa[e]pyrrolo[1,2-a][1,4]diazacyclopentadecin-6-yl)carbamate] | – | – | EC50 ([1]; Hepatitis C virus, Huh-7, 72 h, HCV genotype 1a replicon luciferase assay, range class, read-out: LE_1a (EC50, range)): < 5.46 nM; EC50 ([2]; Hepatitis C virus, Huh-7, 72 h, HCV genotype 1b replicon luciferase assay, range class, read-out: LE_1b (EC50, range)): < 5.46 nM
10 | CC[C@@H]1C[C@@H](C)CC/C=C\[C@@H]2C[C@@]2(C(=O)NS(=O)(=O)C2CC2)NC(=O)[C@@H]2C[C@@H](Oc3nccc4c5c(ccc34)OCCO5)CN2C(=O)[C@H]1NC(=O)OC(C)(C)C(C)(F)F [Compound 5335, 3,3-difluoro-2-methylbutan-2-yl((2R,6S,7R,9S,13aS,14aR,16aS,Z)-14a-((cyclopropylsulfonyl)carbamoyl)-2-((2,3-dihydro-[1,4]dioxino[2,3-f]isoquinolin-7-yl)oxy)-7-ethyl-9-methyl-5,16-dioxo-1,2,3,5,6,7,8,9,10,11,13a,14,14a,15,16,16a-hexadecahydrocyclopropa[e]pyrrolo[1,2-a][1,4]diazacyclopentadecin-6-yl)carbamate] | 4.82 to 103 nM | < 5.46 nM | EC50 ([1]; Hepatitis C virus, Huh-7, 72 h, HCV genotype 1a replicon luciferase, read-out: LE_1a (EC50)): 6.5 nM; EC50 ([2]; Hepatitis C virus, Huh-7, 72 h, HCV genotype 1b replicon luciferase, read-out: LE_1b (EC50)): 2.03 nM
11 | CC[C@@H]1C[C@H](C)CC/C=C\[C@@H]2C[C@@]2(C(=O)NS(=O)(=O)C2CC2)NC(=O)[C@@H]2C[C@@H](Oc3ncc(OC)c4ccc(Cl)cc34)CN2C(=O)[C@H]1NC(=O)OC(C)(C)C(F)(F)F [Compound 4190] | – | – | EC50 ([1]; Hepatitis C virus, GETYPE1A, Huh-7, 72 h, HCV genotype 1a replicon luciferase, read-out: LE_1a (EC50, range)): < 5.46 nM; EC50 ([2]; Hepatitis C virus, GETYPE1B, Huh-7, 72 h, HCV genotype 1b replicon luciferase, read-out: LE_1b (EC50, range)): < 5.46 nM
12 | [2H]C([2H])([2H])C(OC(=O)N[C@@H]1C(=O)N2C[C@H](Oc3nccc4cc(OC(C)C)ccc34)C[C@H]2C(=O)N[C@]2(C(=O)NS(=O)(=O)C3(C)CC3)C[C@H]2/C=C\CC[C@H](C)C[C@H]1C)(C([2H])([2H])[2H])C([2H])([2H])[2H] [Compound 5166, 1,1,1,3,3,3-hexadeutero-2-(trideuteromethyl)propan-2-yl((2R,6S,7R,9S,13aS,14aR,16aS,Z)-2-((6-isopropoxyisoquinolin-1-yl)oxy)-7,9-dimethyl-14a-(((1-methylcyclopropyl)sulfonyl)carbamoyl)-5,16-dioxo-1,2,3,5,6,7,8,9,10,11,13a,14,14a,15,16,16a-hexadecahydrocyclopropa[e]pyrrolo[1,2-a][1,4]diazacyclopentadecin-6-yl)carbamate] | 4.82 to 103 nM | 4.82 to 103 nM | –
13 | COc1ccc2c(Cl)cc(O[C@@H]3C[C@H]4C(=O)N[C@]5(C(=O)NS(=O)(=O)C6(C)CC6)C[C@H]5/C=C\CC[C@@H](C)C[C@@H](C)[C@H](NC(=O)OC(C)(C)C)C(=O)N4C3)nc2c1 [Compound 4300, tert-butyl ((2R,6S,7R,9R,13aS,14aR,16aS,Z)-2-((4-chloro-7-methoxyquinolin-2-yl)oxy)-7,9-dimethyl-14a-(((1-methylcyclopropyl)sulfonyl)carbamoyl)-5,16-dioxo-1,2,3,5,6,7,8,9,10,11,13a,14,14a,15,16,16a-hexadecahydrocyclopropa[e]pyrrolo[1,2-a][1,4]diazacyclopentadecin-6-yl)carbamate] | 0.51 to 1 nM | 0.51 to 1 nM | –
